Source: patent publication US11897862B2 (Gilead Sciences, Inc., priority 2022, dated 2024)
Read-outs that look alike come from different tables or passages of the source.

What was measured:
Assay type in all cases: cell-based
[1] = tested on: IL-2 production in Jurkat cells; assay: Jurkat IL-2 functional assay (ELISA of supernatants); details: Homo sapiens; for maximal fold induction: Jurkat, top of the curve fit; for EC50: overnight incubation
Description: (§1) Jurkat cell line (ATCC, Clone E6-1), highly expresses IKZF2 and lends it an appropriate system to screen degradation along with a functional readout. Jurkat cells were grown to 80% confluency in TC medium (RPMI containing glutamax, 10% FBS, 1% NEAA, and 1% Pen/Strep Glutamin in tissue culture flasks.
(§2) The cells were spun down at 400 g for 5 mins and counted. 100 K cells per well were added to a 96-well plate. The compounds were introduced starting at 10 μM and dilutions were made 1:10 for each compound. 100 μL of compound was added to each well for a 12-point titration. The cells were incubated at 37° C. with 5% CO2 overnight.
The following day, supernatants were collected for a functional readout using ELISA. The supernatants were diluted 1:2 and added to appropriate Human IL-2 plates for IL-2 functional readout.
The top of the curve fit for each compound is reported as the IL-2 ‘fold increase over DMSO control.’

IKZF2 [2] = biological target: T1, IKZF2 (Homo sapiens, UniProt Q96SW2+Q9UKS7); assay: Human whole blood IKZF2 degradation (flow cytometry, CD4/CD25/Foxp3+ Treg cells); design: endogenous in cells; details: for DC50: read-out: IKZF2 EC50
Outline: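 Fresh healthy-donor human whole blood stimulated with CD3/CD28 activator and serially diluted compound for 24 hrs at 37° C. IKZF2 MFI in CD4/CD25/Foxp3+ Tregs (IKZF1 MFI in CD4+ T cells) measured by flow cytometry after RBC lysis, fixation, permeabilization. EC50 and Dmax versus DMSO wells.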
Target sequence in this assay (Q9UKS7 whole entry): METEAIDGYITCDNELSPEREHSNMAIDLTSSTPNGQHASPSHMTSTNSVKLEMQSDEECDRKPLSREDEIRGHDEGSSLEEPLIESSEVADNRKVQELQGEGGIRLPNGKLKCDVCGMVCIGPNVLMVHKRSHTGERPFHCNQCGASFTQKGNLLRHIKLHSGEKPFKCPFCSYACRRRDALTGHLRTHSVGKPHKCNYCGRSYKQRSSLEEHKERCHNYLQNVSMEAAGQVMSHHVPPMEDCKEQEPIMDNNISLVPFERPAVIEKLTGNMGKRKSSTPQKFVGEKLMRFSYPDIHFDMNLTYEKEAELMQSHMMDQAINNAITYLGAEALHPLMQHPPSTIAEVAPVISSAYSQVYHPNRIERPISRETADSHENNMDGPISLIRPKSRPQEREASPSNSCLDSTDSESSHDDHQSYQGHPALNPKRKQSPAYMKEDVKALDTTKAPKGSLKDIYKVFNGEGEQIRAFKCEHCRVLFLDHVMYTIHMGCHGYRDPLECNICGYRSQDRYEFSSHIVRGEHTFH
Target sequence in this assay (Q96SW2 whole entry): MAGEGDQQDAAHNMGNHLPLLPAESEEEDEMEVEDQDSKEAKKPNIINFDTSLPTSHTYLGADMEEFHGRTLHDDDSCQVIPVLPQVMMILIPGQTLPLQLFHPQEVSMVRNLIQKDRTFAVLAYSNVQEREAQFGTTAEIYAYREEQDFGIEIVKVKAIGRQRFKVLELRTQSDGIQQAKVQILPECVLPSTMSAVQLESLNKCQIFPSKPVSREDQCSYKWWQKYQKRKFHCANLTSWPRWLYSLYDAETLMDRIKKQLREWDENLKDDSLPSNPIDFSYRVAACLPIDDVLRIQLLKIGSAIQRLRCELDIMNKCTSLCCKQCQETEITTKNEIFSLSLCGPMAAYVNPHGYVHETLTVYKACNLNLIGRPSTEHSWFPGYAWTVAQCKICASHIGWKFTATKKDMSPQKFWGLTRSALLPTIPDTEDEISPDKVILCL
Target sequence in this assay (Q16531 whole entry partner): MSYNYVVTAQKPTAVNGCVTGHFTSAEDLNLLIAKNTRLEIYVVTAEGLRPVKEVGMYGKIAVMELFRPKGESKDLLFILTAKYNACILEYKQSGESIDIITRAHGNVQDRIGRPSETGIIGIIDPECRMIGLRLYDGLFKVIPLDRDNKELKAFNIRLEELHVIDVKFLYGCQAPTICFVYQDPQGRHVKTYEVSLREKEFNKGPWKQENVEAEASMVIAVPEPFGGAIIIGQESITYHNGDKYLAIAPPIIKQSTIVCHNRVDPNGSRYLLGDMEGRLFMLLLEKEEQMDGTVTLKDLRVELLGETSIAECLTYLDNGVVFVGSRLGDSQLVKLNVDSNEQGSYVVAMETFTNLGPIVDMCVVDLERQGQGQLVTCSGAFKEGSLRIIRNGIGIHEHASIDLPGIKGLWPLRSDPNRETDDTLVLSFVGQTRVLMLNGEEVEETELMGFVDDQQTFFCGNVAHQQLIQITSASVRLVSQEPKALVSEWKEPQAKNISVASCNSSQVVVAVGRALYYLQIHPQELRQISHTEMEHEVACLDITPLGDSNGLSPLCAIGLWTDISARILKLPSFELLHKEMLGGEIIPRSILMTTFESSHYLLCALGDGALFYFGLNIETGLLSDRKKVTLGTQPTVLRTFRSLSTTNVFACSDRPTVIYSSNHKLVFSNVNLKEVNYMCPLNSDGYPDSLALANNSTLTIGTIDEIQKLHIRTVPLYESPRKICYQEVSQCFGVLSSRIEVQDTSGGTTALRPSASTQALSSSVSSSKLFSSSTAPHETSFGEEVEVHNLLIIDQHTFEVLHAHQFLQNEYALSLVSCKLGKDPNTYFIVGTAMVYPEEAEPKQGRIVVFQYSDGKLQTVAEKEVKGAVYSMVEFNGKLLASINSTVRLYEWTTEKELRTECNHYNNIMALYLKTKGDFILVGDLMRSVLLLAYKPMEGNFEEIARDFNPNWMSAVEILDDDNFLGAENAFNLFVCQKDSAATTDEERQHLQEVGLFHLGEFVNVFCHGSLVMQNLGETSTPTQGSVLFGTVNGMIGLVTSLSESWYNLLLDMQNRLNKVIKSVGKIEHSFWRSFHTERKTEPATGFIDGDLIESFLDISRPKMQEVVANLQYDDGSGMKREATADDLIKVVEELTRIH

IKZF2 [3] = biological target: T1, IKZF2; assay: HEK293 IKZF2 degradation kinetics (HiBiT, timepoints 1-24 h); design: expressed in transfected cells; details: for kinact: HEK293, IKZF2, timepoints 1, 2, 3, 4.5 and 24 hour, read-out: Maximum degradation rate Kinact (converted)
Description: The assay technology and principles for evaluating IKZF2 degradation kinetics in HEK293 cells was identical to the HEK293 degradation assay as described above. Additional details are briefly described below.
On Day 1, Cells were grown and induced the same as described above. On Days 2 and 3, compounds for testing were dispensed via ECHO and cells were lifted and plated into compound-spotted assay plates as above. Plates were returned to the 37° C. incubator until addition of Nano-Glo lytic reagent at 1, 2, 3, 4.5, and 24 hour timepoints. At these timepoints, plates were read on Envision reader as above.
All raw data was normalized to DMSO control (final concentration: 0.5%) wells as POC and plotted out as a function of time to generate the degradation rate constant (K) value. The maximum degradation rate (Kinact) was determined by plotting the K value as a function of concentration for each compound tested. Kinact values are shown in Table 25 and the degradation rate plots as well as timecourse of degradation are shown for select compounds in FIG. 1A, FIG. 1B, FIG. 2A and FIG. 2B.
Target sequence in this assay (Q9UKS7 1-500 isoform Q9UKS7-2): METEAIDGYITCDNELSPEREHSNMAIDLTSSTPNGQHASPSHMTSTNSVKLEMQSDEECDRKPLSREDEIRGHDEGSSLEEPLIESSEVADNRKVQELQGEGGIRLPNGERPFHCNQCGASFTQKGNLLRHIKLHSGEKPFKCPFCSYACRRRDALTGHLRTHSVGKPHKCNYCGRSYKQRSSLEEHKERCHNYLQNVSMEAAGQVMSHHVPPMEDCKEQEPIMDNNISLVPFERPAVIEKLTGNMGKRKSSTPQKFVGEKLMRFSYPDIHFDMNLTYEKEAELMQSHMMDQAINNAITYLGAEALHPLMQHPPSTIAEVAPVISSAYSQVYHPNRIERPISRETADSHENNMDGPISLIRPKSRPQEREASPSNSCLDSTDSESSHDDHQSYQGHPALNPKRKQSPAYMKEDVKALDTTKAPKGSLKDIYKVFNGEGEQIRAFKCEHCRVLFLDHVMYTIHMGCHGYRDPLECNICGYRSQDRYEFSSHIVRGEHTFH
Target sequence in this assay (Q96SW2 whole entry): as the sequence (Q96SW2 whole entry) above
Target sequence in this assay (Q16531 whole entry partner): as the sequence (Q16531 whole entry partner) above

IKZF2 [4] = biological target: T1, IKZF2; assay: HEK293 HiBiT in vitro degradation of IKZF2; design: expressed in transfected cells; details: for DC50 / IKZF2 Dmax: HEK293 HiBiT; for DC50: 18-24 hr incubation, normalized to DMSO control, read-out: IKZF2 EC50; for IKZF2 Dmax / Dmax: maximum degradation at the highest concentration tested; for Dmax: HEK293, HEK293 HiBiT
Outline: (§3)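 Dox-inducible ([…] final, overnight) HEK293 Flp-In T-REx, single-copy target-HiBiT C-terminal fusion; compound serial dilution, 18-24 h, 37 °C; lytic Nano-Glo luminescence; EC50, Dmax.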
Target sequence in this assay (Q9UKS7 1-500 isoform Q9UKS7-2): as the sequence (Q9UKS7 1-500 isoform Q9UKS7-2) above
Target sequence in this assay (Q96SW2 whole entry): as the sequence (Q96SW2 whole entry) above
Target sequence in this assay (Q16531 whole entry partner): as the sequence (Q16531 whole entry partner) above

IKZF1 = biological target: T2, IKZF1 (Homo sapiens, UniProt Q13422+Q96SW2); assay: HEK293 HiBiT in vitro degradation of IKZF1; details: for Dmax: HEK293, HEK293 HiBiT, maximum degradation at the highest concentration tested; for DC50: HEK293 HiBiT, 18-24 hr incubation, normalized to DMSO control, read-out: IKZF1 EC50
T2 construct: expressed in transfected cells
T2 sequence (Q13422 whole entry): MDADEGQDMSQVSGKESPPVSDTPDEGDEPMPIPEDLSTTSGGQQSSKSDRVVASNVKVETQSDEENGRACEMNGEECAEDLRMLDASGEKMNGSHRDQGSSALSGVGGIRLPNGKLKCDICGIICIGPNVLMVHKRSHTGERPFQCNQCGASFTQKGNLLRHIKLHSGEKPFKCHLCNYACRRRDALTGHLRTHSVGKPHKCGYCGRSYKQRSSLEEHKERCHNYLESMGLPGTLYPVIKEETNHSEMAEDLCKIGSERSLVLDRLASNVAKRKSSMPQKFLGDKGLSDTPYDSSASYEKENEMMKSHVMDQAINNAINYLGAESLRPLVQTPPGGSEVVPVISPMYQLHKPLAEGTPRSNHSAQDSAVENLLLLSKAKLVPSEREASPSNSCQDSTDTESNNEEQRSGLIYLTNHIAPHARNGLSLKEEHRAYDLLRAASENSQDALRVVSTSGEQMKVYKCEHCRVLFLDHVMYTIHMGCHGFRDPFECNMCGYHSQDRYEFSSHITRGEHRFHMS
T2 sequence (Q96SW2 whole entry): as the sequence (Q96SW2 whole entry) above
T2 sequence (Q16531 whole entry partner): as the sequence (Q16531 whole entry partner) above
Outline: as §3

IKZF2 [5] = biological target: T1, IKZF2; assay: Jurkat IKZF2 degradation (flow cytometry); design: endogenous in cells; details: Jurkat cells, overnight incubation; for DC50: flow cytometry, normalized to DMSO control, read-out: IKZF2 Degradation EC50; for Dmax: maximum degradation at the highest concentration tested
Description: as §1, §2
Target sequence in this assay (Q9UKS7 whole entry): as the sequence (Q9UKS7 whole entry) above
Target sequence in this assay (Q96SW2 whole entry): as the sequence (Q96SW2 whole entry) above
Target sequence in this assay (Q16531 whole entry partner): as the sequence (Q16531 whole entry partner) above
Cells were stained with appropriate surface and intracellular antibodies and acquired by flow cytometry and analysed for degradation. […]

SALL4 = biological target: T3, SALL4 (Homo sapiens, UniProt Q96SW2+Q9UJQ4); assay: HEK293 HiBiT in vitro degradation of SALL4; details: for DC50: 18-24 hr incubation, normalized to DMSO control, read-out: SALL4 EC50
T3 construct: expressed in transfected cells
T3 sequence (Q9UJQ4 whole entry): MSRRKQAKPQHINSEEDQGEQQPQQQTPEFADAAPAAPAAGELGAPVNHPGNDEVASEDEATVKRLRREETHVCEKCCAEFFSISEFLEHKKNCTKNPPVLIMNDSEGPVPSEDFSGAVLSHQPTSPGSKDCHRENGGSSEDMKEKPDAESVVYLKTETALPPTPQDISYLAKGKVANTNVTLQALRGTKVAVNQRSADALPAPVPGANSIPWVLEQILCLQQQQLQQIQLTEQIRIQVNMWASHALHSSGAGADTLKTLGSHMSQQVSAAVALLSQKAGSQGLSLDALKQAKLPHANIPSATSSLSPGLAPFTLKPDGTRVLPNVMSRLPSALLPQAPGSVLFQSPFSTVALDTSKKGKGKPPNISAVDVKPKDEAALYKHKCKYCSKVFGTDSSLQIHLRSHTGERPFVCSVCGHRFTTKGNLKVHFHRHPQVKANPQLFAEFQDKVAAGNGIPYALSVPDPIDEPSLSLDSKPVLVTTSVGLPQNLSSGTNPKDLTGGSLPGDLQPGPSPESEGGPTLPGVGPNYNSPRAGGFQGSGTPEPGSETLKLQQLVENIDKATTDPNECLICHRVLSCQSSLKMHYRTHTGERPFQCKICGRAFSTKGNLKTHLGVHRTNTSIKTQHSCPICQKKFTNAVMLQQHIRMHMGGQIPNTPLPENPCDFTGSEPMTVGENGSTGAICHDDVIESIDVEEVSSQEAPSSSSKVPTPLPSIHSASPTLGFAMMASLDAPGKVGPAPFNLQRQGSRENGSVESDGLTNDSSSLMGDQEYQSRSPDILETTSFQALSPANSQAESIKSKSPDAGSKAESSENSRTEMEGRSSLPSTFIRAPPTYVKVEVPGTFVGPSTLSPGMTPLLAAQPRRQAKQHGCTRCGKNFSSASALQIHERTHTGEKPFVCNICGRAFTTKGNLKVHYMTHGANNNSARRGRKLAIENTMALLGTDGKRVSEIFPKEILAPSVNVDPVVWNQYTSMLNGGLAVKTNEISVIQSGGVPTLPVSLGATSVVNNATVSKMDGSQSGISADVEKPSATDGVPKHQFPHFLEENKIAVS
T3 sequence (Q96SW2 whole entry): as the sequence (Q96SW2 whole entry) above
T3 sequence (Q16531 whole entry partner): as the sequence (Q16531 whole entry partner) above
Outline: as §3

[6] = ELISA of supernatants, read-out: IL-2 Production Fold increase over DMSO control
[7] = read-out: increase in IL-2 production relative to DMSO control
[8] = 24 hrs incubation, IKZF2 MFI in CD4/CD25/Foxp3+ Treg cells, flow cytometry

| SMILES | maximal fold induction [1, 6] | maximal fold induction [1, 7] | EC50 ([1]; ELISA of supernatants) [nM] | IKZF2 Dmax (IKZF2 [2]; [8]) [%] | DC50 (IKZF2 [2]; [8]) [nM] | kinact (IKZF2 [3]) [s⁻¹] | DC50 (IKZF2 [4]) [nM] | IKZF2 Dmax (IKZF2 [4]) [%] | Dmax (IKZF1) [%] | DC50 (IKZF1) [nM] | DC50 (IKZF2 [5]) [nM] | Dmax (IKZF2 [5]) [%] | Dmax (IKZF2 [4]) [%] | DC50 (SALL4) [nM] | IKZF2 degradation potency compared with Reference Compound B-4 (IKZF2 [2]; 24 hrs) | Dmax (IKZF2 [2]; [8]) [%] | speed of IKZF2 degradation compared with Reference Compounds A-1, B-3, B-4, C-1 (IKZF2 [3]; HEK293) | Dmax (SALL4; maximum degradation at the highest concentration tested) [%] |
| --- | --- | --- | --- | --- | --- | --- | --- | --- | --- | --- | --- | --- | --- | --- | --- | --- | --- | --- |
| CC(N[C@H]1CCCC[C@@H]1Cc1ccc2c(c1)CN(C1CCC(=O)NC1=O)C2=O)C1CCC1 (some centres unmarked) [Example 218] | 2.2 | ≥ 1.9 | 8 | 97 | 4 | 0.000131 | 2 | 95 | 34 | 626 | 0.8 | 93 |  |  |  |  |  |  |
| O=C1CC[C@H](N2Cc3c(ccc(C[C@H]4OCCC[C@@H]4N[C@H]4CC[C@H](F)CC4)c3F)C2=O)C(=O)N1 [Example 369] | 2 | ≥ 1.9 | 0.03 |  |  | 0.000106 | 5 |  |  | > 1000 | 0.1 | 90 | 97 | > 10000 |  |  |  |  |
| O=C1CCC(N2Cc3cc(C[C@H]4CCCC[C@@H]4NC4CCC(F)(F)CC4)ccc3C2=O)C(=O)N1 (stereo partly drawn) [Example 46, 3-(5-(((1R,2S)-2-((4,4-difluorocyclohexyl)amino)cyclohexyl)methyl)-1-oxoisoindolin-2-yl)piperidine-2,6-dione] | 2.7 | ≥ 1.9 | 3.5 |  | 3 | 0.000158 | 1 |  | 29 | 33 | 2 | 95 | 94 | > 10000 | more potent | 96 | faster degradation of IKZF2 |  |
| O=C1CCC(N2Cc3c(ccc(C[C@H]4OCCC[C@@H]4NC4CCC(C(F)F)CC4)c3F)C2=O)C(=O)N1 (single isomer, unassigned) [Example 283] | 2.1 | ≥ 1.9 | 1.9 |  | 5 | 9.44e-05 | 4 | 98 | 26 | 92 | 1.4 | 90 |  | > 10000 |  | 96 |  |  |
| O=C1CCC(N2Cc3cc(C4CCC(Cc5ccccc5)CC4)ccc3C2=O)C(=O)N1 (centres unmarked) [Example A-1] | 1.6 |  | 10 |  |  | 3.89e-05 |  |  |  |  |  | 61 | 82 |  |  | 82 |  | 63 |
| O=C1CC[C@H](N2Cc3cc(C[C@H]4CCCC[C@@H]4NC4CCC(F)(F)CC4)ccc3C2=O)C(=O)N1 (single isomer, unassigned) [Example 328] | 2.7 | ≥ 1.9 | 3.4 |  | 2 | 0.000175 | 1 |  | 62 | 22 | 0.4 | 96 | 98 | > 10000 |  | 94 |  |  |
| CC(N[C@H]1CCCC[C@@H]1Cc1ccc2c(c1F)CN(C1CCC(=O)NC1=O)C2=O)C1CCOCC1 (single isomer, unassigned) [Example 287] | 2.5 | ≥ 1.9 | 0.6 |  | 2 | 0.000189 | 1 |  | 47 | 66 | 0.6 | 96 | 95 | > 10000 |  | 92 |  |  |
